According to patent publication US7632657B2, “Method of detecting meticillin-resistant microorganisms” (priority 2002, dated 2009):

Assays:
[1] = tested on: AR4295 MetiS: meticillin-sensitive strain; assay: Growth of S. aureus strains streaked on CHROMagar Staph aureus medium with antibiotic: meticillin-sensitive strain; type: cell-based, Staphylococcus aureus; design: key: + = colony growth; − = no growth; * = microcolonies; conditions: streaked dishes, 37° C. for 24 hours
From the text: (§1) Study of the growth of meticillin-resistant S. aureus strains on CHROMagar Staph aureus medium (available from the company CHROMagar, 4, Place du 18 Juin 1940, 75006 Paris France): • AR4295 MetiS: meticillin-sensitive strain • AR4297 MetiR: (homogeneous) meticillin-resistant strain • MRhet: (heterogeneous) meticillin-resistant strain • Z252: meticillin-resistant strain, homogeneous, low level of resistance
(§2) Petri dishes are inoculated with bacterial cultures by streaking the dishes, in order to observe the growth of isolated bacteria, after incubation at 37° C. for 24 hours.
(§3) The bacteria that grow give purple colonies on the culture medium, confirming that the microorganisms are Staphylococcus aureus.

[2] = tested on: AR4297 MetiR: (homogeneous) meticillin-resistant strain; assay: Growth of S. aureus strains streaked on CHROMagar Staph aureus medium with antibiotic: homogeneous meticillin-resistant strain; type: cell-based, Staphylococcus aureus; design: key: + = colony growth; − = no growth; * = microcolonies; conditions: CHROMagar Staph aureus + Cefoxitin 5 mg/l; streaked dishes, 37° C. for 24 hours
From the text: as §1, §2, §3

[3] = tested on: MRhet: (heterogeneous) meticillin-resistant strain; assay: Growth of S. aureus strains streaked on CHROMagar Staph aureus medium with antibiotic: heterogeneous meticillin-resistant strain; type: cell-based, Staphylococcus aureus; design: key: + = colony growth; − = no growth; * = microcolonies; conditions: streaked dishes, 37° C. for 24 hours
From the text: as §1, §2, §3

[4] = tested on: Z252: meticillin-resistant strain, homogeneous, low level of resistance; assay: Growth of S. aureus strains streaked on CHROMagar Staph aureus medium with antibiotic: low-level resistant strain; type: cell-based, Staphylococcus aureus; design: key: + = colony growth; − = no growth; * = microcolonies; conditions: streaked dishes, 37° C. for 24 hours
From the text: as §1, §2, §3

[5] = Stability of the detection medium prepared with the antibiotic; type: physicochemical; conditions: added when the medium is at 48° C.
Description: For example, a stability of at least 2 months has been observed for a medium in accordance with the invention prepared with cefoxitin at a concentration of 5 mg/l, added to the medium when the latter is at a temperature of 48° C. The stability of the medium in accordance with the invention has been brought to at least 5 months when said medium has been prepared with cefmetazole at a concentration of 2.5 mg/l, added to the medium when the latter is at a temperature of 48° C.
The expression “stability of the medium” is intended to denote the ability of the medium in accordance with the invention to allow the selective detection of meticillin-resistant microorganisms, in particular staphylococcus aureus, for a given period of time, with the same reliability throughout the period of time.

[6] = Conservation of antibiotic activity on heating; type: physicochemical; conditions: temperature of greater than 100° C.; resistance verified by the inventors at 121° C.
Description: (its resistance having even been verified by the inventors at 121° C.).

[7] = CHROMagar Staph aureus + Cefoxitin 5 mg/l
[8] = CHROMagar Staph aureus + oxacillin 6 mg/ml

## CO[C@@]1(NC(=O)Cc2cccs2)C(=O)N2C(C(=O)O)=C(COC(N)=O)CS[C@@H]21 [Cefoxitin, cefoxitin]
[1]; [7]
  colony growth, AR4295 MetiS: −
[2]
  colony growth, AR4297 MetiR: +
[3]; [7]
  colony growth, MRhet: +
[4]; [7]
  colony growth, Z252: +
[5]; medium prepared with cefoxitin at 5 mg/l
  stability of the medium: at least 2 months

## CO[C@@]1(NC(=O)CSCC#N)C(=O)N2C(C(=O)O)=C(CSc3nnnn3C)CS[C@@H]21 [cefmetazole]
[5]; medium prepared with cefmetazole at 2.5 mg/l
  stability of the medium: at least 5 months

## CO[C@@]1(NC(=O)CSC(F)F)C(=O)N2C(C(=O)O)=C(CSc3nnnn3CCO)CO[C@@H]21 [flomoxef]
[6]
  ability to conserve antibiotic activity on heating: conserve its antibiotic activity

## Cc1onc(-c2ccccc2)c1C(=O)N[C@@H]1C(=O)N2[C@@H]1SC(C)(C)[C@@H]2C(=O)O [oxacillin]
[1]; [8]
  colony growth, AR4295 MetiS: −
[3]; [8]
  colony growth, MRhet: −
[4]; [8]
  colony growth, Z252: −
